Here are results for two substances from article PMC4105520, “Effects of a novel cyclic RGD peptidomimetic on cell proliferation, migration and angiogenic activity in human endothelial cells” (Vascular Cell, 2014).

The conditions of data set [1]: in the same or very close concentration range as the anti-angiogenic activity; cited from earlier work. As for the experimental part:
In our experiments, the effects of cyclo[DKP-RGD] 1 on HUVEC activity were tested in resting conditions as well as in the presence of a culture medium enriched with growth factors known to promote angiogenesis such as VEGF, EGF, IGF-I and FGF2 or after addition of the pro-inflammatory chemokine IL-8, which has a key role in the regulation of pathological angiogenesis. According to our results, cyclo[DKP-RGD]

In data set [2] the test system is HUVEC. The data set is described as follows: Proliferation assay, ELISA of BrdU incorporation. In kind it is cell-based, human. The note with it: 24 h, data not shown. As for the experimental part:
To assess HUVEC proliferation, 1×10^4 cells were seeded in duplicate in a 96-well plate and cultured for 24 h without or with cyclo[DKP-RGD] 1 at different concentrations. Proliferation was then measured by a colorimetric immunoassay, based on the ELISA measurement of bromodeoxyuridine (BrdU) incorporation during DNA synthesis. The absorbance (ABS) of the samples was determined by means of a spectrophotometer (Model 680, Bio-Rad Laboratories, Hercules, CA, USA) with wavelength set at 450 nm, and finally expressed as the difference between BrdU positive and negative samples, expressed as Optical Density (O.D.).

In data set [3] the test system is HUVEC. The data set is described as follows: Cell migration, Boyden chamber assay. In kind it is cell-based, human. The note with it: for effect on spontaneous migration / effect on stimulated migration: 5 h at 37°C; for effect on stimulated migration: VEGF, EGF, IGF-I and FGF2 in bottom chamber. As for the experimental part:
Cell migration was measured by means of a Boyden chamber assay. Briefly, 1×10^5 HUVEC were seeded in the top well of the Boyden chamber, cyclo[DKP-RGD] 1 was added in the bottom or in the top compartment, and a 3 μm-pore cellulose nitrate filter was placed between the two compartments. Stimulated migration was assessed by putting VEGF, EGF, IGF-I, and FGF2 in the bottom chamber. After an incubation period of 5 h at 37°C, the filter was recovered, dehydrated, fixed, and finally stained with hematoxylin. Migration into the filter was quantified by measuring the distance (in μm) from the surface of the filter to the leading front of cells using an optical microscope (Axiolab, Carl Zeiss S.p.A. Milan, Italy).

The test system of data set [4] is HUVEC. The data set can be described thus: Angiogenesis assay, network formation on Matrigel. The note with it: 5 h. The format is cell-based, human. As for the experimental part:
To assess angiogenic activity, HUVEC 2.5×10^4 cells were seeded in a 24-well plate coated with 100 μl/well of Matrigel previously polymerized for 1 h at 37°C. […] 1 under either resting or stimulated conditions. In some experiments IL-8 (10 nM) was used as pro-angiogenic stimulus. Network formation was evaluated by phase‒contrast microscopy using a fluorescence microscope (Axiovert 40CFL, Carl Zeiss S.p.A. Milan, Italy). Network formation was finally quantified in terms of mean number of loops per field as topological parameters and the total length of the branches. For the purpose of the analysis, loops were defined as any complete ring formed by HUVEC, while open ramifications were considered as branches. The total branch length (pixels) and the number of loops were quantified using the ImageJ image analysis software (http://rsbweb.nih.gov/ij/).

The subject of data set [5] is αv integrin subunit mRNA in HUVEC. The data set is described as follows: Real time PCR, mRNA of integrin subunit αv. The format is cell-based, human. The note with it: 1 μM, 5 h, mean ± SD of 3 experiments; for αv mRNA, 2^-Δct ×10^2: GAPDH housekeeping. As for the experimental part: (§1) Cells were treated for 5 h in the presence or absence of 1 μM cyclo[DKP-RGD] 1 in different growth conditions, as previously described. At the end of the treatment, RNA extraction was performed using the Qiazol lysis reagent. Primers were designed by using the “Primer3 input” software (http://frodo.wi.mit.edu/cgi-bin/primer3/primer3.cgi/primer3_www.cgi) and the specificity of each primer was controlled by the BLAST software (http://blast.ncbi.nlm.nih.gov) (Table 1). Real time PCR was performed as previously reported At the end of the reaction, a melting curve analysis was carried out to check for the presence of primer-dimers. Comparison of the expression of each gene was determined by using GAPDH as housekeeping gene. Each run was analyzed in duplicate and data are finally expressed as 2^-Δct.
A general note: In qPCR the cycle at which signal appears reflects the starting amount.

In data set [6] the test system is β3 integrin subunit mRNA in HUVEC. The data set is described as follows: Real time PCR, mRNA of integrin subunit β3. In kind it is cell-based, human. The note with it: 1 μM, 5 h, mean ± SD of 3 experiments; for β3 mRNA, 2^-Δct ×10^2: GAPDH housekeeping. As for the experimental part: as §1
Data set [7] has as its system β5 integrin subunit mRNA in HUVEC. The data set can be described thus: Real time PCR, mRNA of integrin subunit β5. The note with it: 1 μM, 5 h, mean ± SD of 3 experiments; for β5 mRNA, 2^-Δct ×10^2: GAPDH housekeeping. In kind it is cell-based, human. As for the experimental part: as §1
Data set [8] has as its system Akt phosphorylation in HUVEC. The data set is described as follows: Western blot analysis of Akt phosphorylation. The format is cell-based, human. Conditions: 5 h. As for the experimental part:
Cells grown in 60-mm dishes were treated for 5 h with 1 μM cyclo[DKP-RGD] 1. The cells were then rinsed twice in ice-cold PBS and 200 μl of the cell lysis buffer (composition: 50 mM Tris–HCl pH 7.4, 1% v/v NP40, 0.25% w/v sodium deoxycholate, 1 mM phenylmethylsulphonyl-fluoride, 1 mM Na3VO4, 1 mM EDTA, 30 mM sodium pyrophosphate, 1 mM NaF, 1 mg/ml leupeptin, 1 mg/ml pepstatin A, 1 mg/ml aprotinin and 1 mg/ml microcystin) was added to the dishes. After scraping, cells were sonicated for 10 s, centrifuged at 12000 g for 5 min at 4°C and the amount of proteins in the supernatant was measured using the BCA protein assay. For western blot analysis, 20 μg of proteins were separated by 10% SDS–PAGE at 150 V for 2 h and blotted onto […] nitrocellulose membranes at 90 mA for 16 h. The membranes were first blocked for 2 h in TRIS buffered saline solution (TBST, composition: TRIS 10 mM, NaCl 150 mM, 0.1% Tween 20) plus 5% low fat dry milk (TBSTM) and then incubated with the appropriate antibody diluted 1:1000 in TBSTM, for 16 h at 4°C under gentle agitation. The membranes were rinsed three times in TBST and then incubated for 2 h at 21°C with the secondary antibody diluted 1:10000 in TBSTM. Membranes were then rinsed three times in TBST and luminescence was detected by using the appropriate kit, and densitometric analysis was performed as previously reported.
(A western blot detects proteins with antibodies after separation by electrophoresis.)

Data set [9] has as its system HUVEC.
Data set [10] concerns αvβ3 integrin. Conditions: read-out: IC50, inhibition of vitronectin binding to αvβ3 integrin; cited from earlier work. From the text:
(§2) HUVEC represent a valid in vitro model which provides seminal insights into the cellular and molecular events leading to neovascularization in response to inflammation and hypoxia in cancer, ischemic events, and in embryogenesis. As anticipated in the introduction, integrins are key actors in angiogenesis and vascular homeostasis, acting as promoters of endothelial cell-matrix interactions. It has been recognized that pharmacological inhibition of the αvβ3 subtype suppresses angiogenesis in many experimental models and αvβ3 antagonists (i.e. antibodies, peptides and peptidomimeti ...

Data set [11] relates to αvβ5 integrin. The note with it: read-out: IC50, inhibition of vitronectin binding to αvβ5 integrin; cited from earlier work.
Excerpt: as §2

Data set [12] deals with ovarian carcinoma IGROV-1. Conditions: cited from earlier work.
The test system of data set [13] is ovarian carcinoma SKOV3. The note with it: cited from earlier work.
For data set [14], the system named is human pancreatic carcinoma PANC-1. The note with it: cited from earlier work.
Data set [15] relates to human pancreatic carcinoma MIA-PaCa2. Conditions: cited from earlier work.
Data set [16] has as its system human osteosarcoma U2-OS. Conditions: cited from earlier work.
In data set [17] the test system is HUVEC. The data set can be described thus: Cell viability by flow cytometry, annexin V/PI staining. Conditions: 24 h, mean ± SD, n = 4, P > 0.05 vs control. On the technique in general: Flow cytometry measures light scatter and fluorescence of single cells or particles in a stream.

For “cyclo-[Arg-Gly-Asp-D-Phe-N(Me)-Val] (head to tail) [cilengitide]”, the cytotoxic activity entry in data set [1] is given as “exhibit cytotoxic activity”.
Broadly, the IC50 is the concentration that inhibits the measured activity by half. Turning to cyclo[DKP-RGD] [cyclo[DKP-RGD] 1], in [2] (basal conditions, up to 1×10^−5 M), the “effect on basal proliferation (BrdU incorporation)” value is “did not significantly affect”. Moreover, the “effect on stimulated proliferation (BrdU incorporation)” value in [2] (with VEGF, EGF, IGF-I and FGF2, up to 1×10^−5 M) was “did not significantly affect”. Moreover, the “concentration of the peak of the bell-shaped effect on migration” value in data set [3] (Boyden chamber, not observed in the angiogenesis assay) was “about 1×10^−9 M”. The “effect on spontaneous migration” value in data set [3] (compound in bottom chamber) and in data set [3] (compound in top chamber together with cells) was “increased” in each case. For the same substance, the “effect on stimulated migration” value is on record as “increased” in data set [3] (compound in bottom chamber) and “decreased” in data set [3] (compound in top chamber). In addition, the “effect on angiogenesis induced by IL-8” value in data set [4] (IL-8 10 nM, P < 0.01 vs control) is “significantly and profoundly decreased”. Also, the “effect on angiogenesis (network formation: loops, branch length)” value in data set [4] (basal conditions) is reported as “did not significantly affect”. Besides, the “effect on angiogenesis induced by VEGF, EGF, IGF-I, and FGF2” value in data set [4] (stimulated conditions, P < 0.01 vs control) was “significantly and profoundly decreased”. Also, the “αv mRNA, 2^-Δct ×10^2” value was 6.59 ± 5.24 in data set [5] (basal conditions); 15.09 ± 10.66 in data set [5] (with VEGF, EGF, IGF, and FGF). Also, the “αv mRNA, Ratio vs Control” value in data set [5] (basal conditions) is recorded as 1.32 ± 0.57; in data set [5] (with VEGF, EGF, IGF, and FGF), 1.28 ± 0.42. For the same substance, the “β3 mRNA, 2^-Δct ×10^2” value was 0.91 ± 0.76 in data set [6] (basal conditions); 1.41 ± 1.07 in [6] (with VEGF, EGF, IGF, and FGF). For the same substance, the “β3 mRNA, Ratio vs Control” value came to 1.08 ± 0.27 in data set [6] (basal conditions); 1.43 ± 0.35 in data set [6] (with VEGF, EGF, IGF, and FGF). For the same substance, the “β5 mRNA, 2^-Δct ×10^2” value in data set [7] (basal conditions) was 1.52 ± 1.34; in data set [7] (with VEGF, EGF, IGF, and FGF), 1.31 ± 1.13. For the same substance, the “β5 mRNA, Ratio vs Control” value in data set [7] (basal conditions) is listed as 1.08 ± 0.07; in data set [7] (with VEGF, EGF, IGF, and FGF), 1.34 ± 0.46. In addition, in [8] (basal conditions, 1×10^−6 M, n = 3, P = 0.001), the “phosphorylated Akt, % of control” value is 53.2 ± 7.9 % of control. Also, the “phosphorylated Akt” value was 8702.7 ± 2008.7 optical density arbitrary units in [8] (basal conditions, 1×10^−6 M, n = 3, P = 0.001, control 16241.7 ± 1763.3); 15174.7 ± 663.9 optical density arbitrary units in [8] (with VEGF, EGF, IGF-I, and FGF2, 1×10^−6 M, n = 3, P = 0.735, control 15406.0 ± 1218.8). Also, the “effect on percentage of viable, early apoptotic, late apoptotic/necrotic or necrotic cells” value in data set [9] is listed as “did not affect”. Also, the IC50 in data set [10] is 4.5 ± 1.1 nM; in [11] it was 149 ± 25 nM. The cytotoxic effects result in data set [12], in data set [13], in [14], in data set [15] and in data set [16] was “lack of cytotoxic effects” each time. The “viable cells (ANX-/PI-)” value in data set [17] (basal conditions, 1×10^−6 M) amounted to 85.4 ± 3.4%; in data set [17] (with VEGF, EGF, IGF-I and FGF2, 1×10^−6 M) it was 86.8 ± 9.2%.
